Data: US20220125051A1, “PRE-HARVEST DESICCATION METHOD” (SYNGENTA CROP PROTECTION AG, priority 2019, published 2022)
Where two headings read alike, the source gives them in different places.

Key:
Experiment in all cases: Post-emergence efficacy, Method A
Assay type in all cases: in vivo
[1] = tested on: Setaria faberi (SETFA); conditions: Setaria faberi, post-emergence, 312 h; Application Rate 500 g/Ha; evaluated after 13 days; Method A; read-out: Control of weed species after post-emergence application, SETFA (100=total damage to plant; 0=no damage to plant)
Description: (§1) Seeds of a variety of test species were sown in standard soil in pots. After cultivation for 14 days (post-emergence) under controlled conditions in a glasshouse (at 24/16° C., day/night; 14 hours light; 65% humidity), the plants were sprayed with an aqueous spray solution derived from the dissolution of the technical active ingredient formula (I) in a small amount of acetone and a special solvent and emulsifier mixture referred to as IF50 (11.12% Emulsogen EL360 TM+44.44% N-methylpyrrolidone+44.44% Dowanol DPM glycol ether), to create a 50 g/I solution which was then diluted to required concentration using 0.25% or 1% Empicol ESC70 (Sodium lauryl ether sulphate)+1% ammonium sulphate as diluent. The test plants were then grown in a glasshouse under controlled conditions (at 24/16° C., day/night; 14 hours light; 65% humidity) and watered twice daily. After 13 days the test was evaluated (100=total damage to plant; 0=no damage to plant).
(§2) Ipomoea hederacea (IPOHE), Euphorbia heterophylla (EPHHL), Chenopodium album (CHEAL), Amaranthus palmeri (AMAPA), Lolium perenne (LOLPE), Digitaria sanguinalis (DIGSA), Eleusine indica (ELEIN), Echinochloa crus-galli (ECHCG), Setaria faberi (SETFA)

[2] = tested on: Digitaria sanguinalis (DIGSA); conditions: Digitaria sanguinalis, post-emergence, 312 h; Application Rate 500 g/Ha; evaluated after 13 days; Method A; read-out: Control of weed species after post-emergence application, DIGSA (100=total damage to plant; 0=no damage to plant)
Description: as §1, §2

[3] = tested on: Chenopodium album (CHEAL); conditions: Chenopodium album, post-emergence, 312 h; Application Rate 500 g/Ha; evaluated after 13 days; Method A; read-out: Control of weed species after post-emergence application, CHEAL (100=total damage to plant; 0=no damage to plant)
Description: as §1, §2

[4] = tested on: Echinochloa crus-galli (ECHCG); conditions: Echinochloa crus-galli, post-emergence, 312 h; Application Rate 500 g/Ha; evaluated after 13 days; Method A; read-out: Control of weed species after post-emergence application, ECHCG (100=total damage to plant; 0=no damage to plant)
Description: as §1, §2

[5] = tested on: Eleusine indica (ELEIN); conditions: Eleusine indica, post-emergence, 312 h; Application Rate 500 g/Ha; evaluated after 13 days; Method A; read-out: Control of weed species after post-emergence application, ELEIN (100=total damage to plant; 0=no damage to plant)
Description: as §1, §2

[6] = tested on: Ipomoea hederacea (IPOHE); conditions: Ipomoea hederacea, post-emergence, 312 h, Application Rate 500 g/Ha; evaluated after 13 days; Method A; read-out: Control of weed species after post-emergence application, IPOHE (100=total damage to plant; 0=no damage to plant)
Description: as §1, §2

[7] = tested on: Lolium perenne (LOLPE); conditions: Lolium perenne, post-emergence, 312 h, evaluated after 13 days
Description: as §1, §2

[8] = tested on: Amaranthus palmeri (AMAPA); conditions: Amaranthus palmeri, post-emergence, 312 h; Application Rate 500 g/Ha; evaluated after 13 days; Method A; read-out: Control of weed species after post-emergence application, AMAPA (100=total damage to plant; 0=no damage to plant)
Description: as §1, §2

[9] = Application Rate 500 g/Ha, Method A, read-out: Control of weed species after post-emergence application, LOLPE (100=total damage to plant; 0=no damage to plant)

Row | Structure (SMILES) | pest or weed control at 500 g/ha [1] [%] | pest or weed control at 500 g/ha [2] [%] | pest or weed control at 500 g/ha [3] [%] | pest or weed control at 500 g/ha [4] [%] | pest or weed control at 500 g/ha [5] [%] | pest or weed control at 500 g/ha [6] [%] | pest or weed control at 500 g/ha [7, 9] [%] | pest or weed control at 500 g/ha [8] [%] | pest or weed control at 500 g/ha ([7]; Application rate 500 g/Ha, 100=total damage to plant, 0=no damage to plant, read-out: Control of weed species after post-emergence application, LOLPE) [%]
1 | Cc1ccc(-c2cc[n+](CCC(=O)O)nc2)nc1 [Compound A199] | 30 | 50 | 40 | 20 | 10 | 10 | 0 | – | –
2 | CCOP(=O)(O)CCC[n+]1ccc(-c2ncccn2)cn1 [Compound A232] | 80 | 90 | 90 | 100 | 50 | 0 | 20 | 100 | –
3 | N#Cc1ccc(-c2cc[n+](CCC(=O)O)nc2)nc1 [Compound A176] | 40 | 30 | 30 | 30 | 70 | 40 | 40 | 40 | –
4 | CC(CS(=O)(=O)[O-])[n+]1ccc(-c2ncccn2)cn1 (stereo not shown) [Compound A181, 2-(4-pyrimidin-2-ylpyridazin-1-ium-1-yl)propane-1-sulfonate] | 60 | 80 | 90 | 100 | 100 | 80 | 90 | 90 | –
5 | COC(=O)c1ccc(C[n+]2ccc(-c3ncccn3)cn2)cc1 [Compound A229] | 10 | 20 | 0 | 0 | 0 | 10 | 0 | 10 | –
6 | CCOP(=O)(C[n+]1ccc(-c2ncccn2)cn1)OCC [Compound A230, 1-(diethoxyphosphorylmethyl)-4-pyrimidin-2-yl-pyridazin-1-ium 2,2,2-trifluoroacetate] | 50 | 70 | 60 | 60 | 10 | 20 | 0 | 50 | –
7 | O=C(O)c1ccc(C[n+]2ccc(-c3ncccn3)cn2)cc1 [Compound A228] | 10 | 20 | 60 | 10 | 10 | 60 | 0 | 80 | –
8 | O=S(=O)([O-])CC(O)C[n+]1ccc(-c2ccncn2)cn1 (stereo not shown) [Compound A224] | 40 | 80 | 90 | 40 | 80 | 80 | 40 | 100 | –
9 | OCC[n+]1ccc(-c2ncccn2)cn1 [Compound A195, 2-(4-pyrimidin-2-ylpyridazin-1-ium-1-yl)ethanol 2,2,2-trifluoroacetate] | – | 20 | 60 | 10 | 10 | 20 | 0 | – | –
10 | O=C(O)CC[n+]1ccc(-c2ncccn2)cn1 [Compound A125, 3-(4-pyrimidin-2-ylpyridazin-1-ium-1-yl)propanoic acid 2,2,2-trifluoroacetate] | – | – | – | – | – | – | – | – | 90
